Source: US20200017495A1, “NOVEL HETEROCYCLIC COMPOUNDS AND THEIR USE IN PREVENTING OR TREATING BACTERIAL INFECTIONS” (priority 2017, published 2020)

System: Klebsiella pneumoniae (KPN) isolates
Assay: MIC of compounds alone and combined with antibacterials, broth microdilution (CLSI)
Assay type: cell-based
How it was run: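 Antibacterial MICs in combination were determined at every compound concentration tested, alongside compound MICs alone. Bacteria grew in cation-adjusted Mueller-Hinton broth starting from 5.10^5 CFU/mL, incubated at 35° C for 16-20 h, and endpoints were the lowest concentrations with no visible growth.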

## C=CC1=C(C(=O)O)N2C(=O)[C@@H](NC(=O)/C(=N\OCC(=O)O)c3csc(N)n3)[C@H]2SC1 [FIX, Cefixime]
KPN 190270, CLA @ 4 μg/mL
  MIC ATB in combination: 1 µg/mL
KPN 190425, AF2 @ 8 μg/mL
  MIC ATB in combination: 0.5 µg/mL
KPN 190425, AF3 @ 8 μg/mL
  MIC ATB in combination: <=0.25 μg/mL
KPN 190425, CLA @ 4 μg/mL
  MIC ATB in combination: <=0.25 μg/mL
KPN 190551, AF2 @ 8 μg/mL
  MIC ATB in combination: <0.25 µg/mL
KPN 190551, AF3 @ 8 μg/mL
  MIC ATB in combination: <0.25 µg/mL
KPN 190551, CLA @ 4 μg/mL
  MIC ATB in combination: <=0.25 μg/mL
KPN 200047, AF2 @ 8 μg/mL
  MIC ATB in combination: <0.25 µg/mL
KPN 200047, AF3 @ 8 μg/mL
  MIC ATB in combination: <0.25 µg/mL
KPN 200047, CLA @ 4 μg/mL
  MIC ATB in combination: <=0.25 μg/mL
KPN 200327, AF2 @ 8 μg/mL
  MIC ATB in combination: <0.25 µg/mL
KPN 200327, AF3 @ 8 μg/mL
  MIC ATB in combination: <0.25 µg/mL
KPN 200327, CLA @ 4 μg/mL
  MIC ATB in combination: <=0.25 μg/mL
KPN 260251, AF2 @ 8 μg/mL
  MIC ATB in combination: <=0.25 μg/mL
KPN 260251, AF3 @ 8 μg/mL
  MIC ATB in combination: <=0.25 μg/mL
KPN 260251, CLA @ 4 μg/mL
  MIC ATB in combination: 32 µg/mL
KPN 260252, AF2 @ 8 μg/mL
  MIC ATB in combination: 16 µg/mL
KPN 260252, AF3 @ 8 μg/mL
  MIC ATB in combination: 16 µg/mL
KPN 260252, CLA @ 4 μg/mL
  MIC ATB in combination: 128 µg/mL
KPN 260376, AF2 @ 8 μg/mL
  MIC ATB in combination: <0.25 µg/mL
KPN 260376, AF3 @ 8 μg/mL
  MIC ATB in combination: <0.25 µg/mL
KPN 260376, CLA @ 4 μg/mL
  MIC ATB in combination: <=0.25 μg/mL
KPN 270077, AF2 @ 8 μg/mL
  MIC ATB in combination: 0.5 µg/mL
KPN 270077, AF3 @ 8 μg/mL
  MIC ATB in combination: <=0.25 μg/mL
KPN 270077, CLA @ 4 μg/mL
  MIC ATB in combination: 0.5 µg/mL
KPN 700603, AF2 @ 8 μg/mL
  MIC ATB in combination: <=0.25 μg/mL
KPN 700603, AF3 @ 8 μg/mL
  MIC ATB in combination: 0.5 µg/mL
KPN 700603, CLA @ 4 μg/mL
  MIC ATB in combination: 0.5 µg/mL
KPN ARA, AF2 @ 8 μg/mL
  MIC ATB in combination: <=0.25 μg/mL
KPN ARA, AF3 @ 8 μg/mL
  MIC ATB in combination: <0.25 µg/mL
KPN ARA, CLA @ 4 μg/mL
  MIC ATB in combination: 128 µg/mL
KPN BAA-1898, AF2 @ 8 μg/mL
  MIC ATB in combination: <=0.25 μg/mL
KPN BAA-1898, AF3 @ 8 μg/mL
  MIC ATB in combination: <=0.25 μg/mL
KPN BAA-1898, CLA @ 4 μg/mL
  MIC ATB in combination: 64 µg/mL
KPN LIB, AF2 @ 8 μg/mL
  MIC ATB in combination: <0.25 µg/mL
KPN LIB, AF3 @ 8 μg/mL
  MIC ATB in combination: <0.25 µg/mL
KPN LIB, CLA @ 4 μg/mL
  MIC ATB in combination: <=0.25 μg/mL
KPN UFR22_O, AF2 @ 8 μg/mL
  MIC ATB in combination: <=0.25 μg/mL
KPN UFR22_O, AF3 @ 8 μg/mL
  MIC ATB in combination: <=0.25 μg/mL
KPN UFR22_O, CLA @ 4 μg/mL
  MIC ATB in combination: <=0.25 μg/mL
KPN UFR23, AF2 @ 8 μg/mL
  MIC ATB in combination: <=0.25 μg/mL
KPN UFR23, AF3 @ 8 μg/mL
  MIC ATB in combination: <0.25 µg/mL
KPN UFR23, CLA @ 4 μg/mL
  MIC ATB in combination: <=0.25 μg/mL
KPN UFR24, AF2 @ 8 μg/mL
  MIC ATB in combination: 0.5 µg/mL
KPN UFR24, AF3 @ 8 μg/mL
  MIC ATB in combination: 0.5 µg/mL
KPN UFR24, CLA @ 4 μg/mL
  MIC ATB in combination: 64 µg/mL
KPN UFR25, AF2 @ 8 μg/mL
  MIC ATB in combination: <0.25 µg/mL
KPN UFR25, AF3 @ 8 μg/mL
  MIC ATB in combination: <0.25 µg/mL
KPN UFR25, CLA @ 4 μg/mL
  MIC ATB in combination: 64 µg/mL
KPN UFR27, AF2 @ 8 μg/mL
  MIC ATB in combination: 8 µg/mL
KPN UFR27, AF3 @ 8 μg/mL
  MIC ATB in combination: 8 µg/mL
KPN UFR27, CLA @ 4 μg/mL
  MIC ATB in combination: >128 µg/mL
KPN UFR28, AF2 @ 8 μg/mL
  MIC ATB in combination: <0.25 µg/mL
KPN UFR28, AF3 @ 8 μg/mL
  MIC ATB in combination: 2 µg/mL
KPN UFR28, CLA @ 4 μg/mL
  MIC ATB in combination: 64 µg/mL
KPN UFR33, AF2 @ 8 μg/mL
  MIC ATB in combination: <=0.25 μg/mL
KPN UFR33, AF3 @ 8 μg/mL
  MIC ATB in combination: >128 µg/mL
KPN UFR33, CLA @ 4 μg/mL
  MIC ATB in combination: >128 µg/mL
KPN UFR42, AF2 @ 8 μg/mL
  MIC ATB in combination: 128 µg/mL
KPN UFR42, AF3 @ 8 μg/mL
  MIC ATB in combination: >128 µg/mL
KPN UFR42, CLA @ 4 μg/mL
  MIC ATB in combination: >128 µg/mL
KPN UFR43, AF2 @ 8 μg/mL
  MIC ATB in combination: <0.25 µg/mL
KPN UFR43, AF3 @ 8 μg/mL
  MIC ATB in combination: <0.25 µg/mL
KPN UFR43, CLA @ 4 μg/mL
  MIC ATB in combination: >128 µg/mL
KPN UFR46, AF2 @ 8 μg/mL
  MIC ATB in combination: >128 µg/mL
KPN UFR46, AF3 @ 8 μg/mL
  MIC ATB in combination: >128 µg/mL
KPN UFR46, CLA @ 4 μg/mL
  MIC ATB in combination: >128 µg/mL
KPN UFR53, AF2 @ 8 μg/mL
  MIC ATB in combination: <0.25 µg/mL
KPN UFR53, AF3 @ 8 μg/mL
  MIC ATB in combination: <=0.25 μg/mL
KPN UFR53, CLA @ 4 μg/mL
  MIC ATB in combination: 128 µg/mL
KPN UFR65, AF2 @ 8 μg/mL
  MIC ATB in combination: 0.5 µg/mL
KPN UFR65, AF3 @ 8 μg/mL
  MIC ATB in combination: <=0.25 μg/mL
KPN UFR65, CLA @ 4 μg/mL
  MIC ATB in combination: 128 µg/mL
KPN UFR66, AF2 @ 8 μg/mL
  MIC ATB in combination: 4 µg/mL
KPN UFR66, AF3 @ 8 μg/mL
  MIC ATB in combination: 4 µg/mL
KPN UFR66, CLA @ 4 μg/mL
  MIC ATB in combination: 64 µg/mL
KPN UFR67, AF2 @ 8 μg/mL
  MIC ATB in combination: 4 µg/mL
KPN UFR67, AF3 @ 8 μg/mL
  MIC ATB in combination: 4 µg/mL
KPN UFR67, CLA @ 4 μg/mL
  MIC ATB in combination: 128 µg/mL
KPN UFR68, AF2 @ 8 μg/mL
  MIC ATB in combination: 0.5 µg/mL
KPN UFR68, AF3 @ 8 μg/mL
  MIC ATB in combination: 0.5 µg/mL
KPN UFR68, CLA @ 4 μg/mL
  MIC ATB in combination: 64 µg/mL
KPN UFR76, AF2 @ 8 μg/mL
  MIC ATB in combination: >128 µg/mL
KPN UFR76, AF3 @ 8 μg/mL
  MIC ATB in combination: >128 µg/mL
KPN UFR76, CLA @ 4 μg/mL
  MIC ATB in combination: >128 µg/mL
KPN UFR77, AF2 @ 8 μg/mL
  MIC ATB in combination: 0.5 µg/mL
KPN UFR77, AF3 @ 8 μg/mL
  MIC ATB in combination: <=0.25 μg/mL
KPN UFR77, CLA @ 4 μg/mL
  MIC ATB in combination: 128 µg/mL
KPN UFR78, AF2 @ 8 μg/mL
  MIC ATB in combination: >128 µg/mL
KPN UFR78, AF3 @ 8 μg/mL
  MIC ATB in combination: >128 µg/mL
KPN UFR78, CLA @ 4 μg/mL
  MIC ATB in combination: >128 µg/mL
KPN UFR79, AF2 @ 8 μg/mL
  MIC ATB in combination: 2 µg/mL
KPN UFR79, AF3 @ 8 μg/mL
  MIC ATB in combination: 2 µg/mL
KPN UFR79, CLA @ 4 μg/mL
  MIC ATB in combination: >128 µg/mL
KPN UFR80, AF2 @ 8 μg/mL
  MIC ATB in combination: <=0.25 μg/mL
KPN UFR80, AF3 @ 8 μg/mL
  MIC ATB in combination: <=0.25 μg/mL
KPN UFR80, CLA @ 4 μg/mL
  MIC ATB in combination: 0.5 µg/mL
